# From patent publication US20020025944A1, “Use of clioquinol for the therapy of Alzheimer's disease” (priority 2000, published 2002)
# Like-named read-outs stand apart in the source and are kept apart here.
# Legend:
# [1] = dissolving clioquinol: n-decane / PBS partitioning; type: physicochemical
# Description: In order to obtain a solution of clioquinol in PBS, the following protocol was followed: 5.3 grams of clioquinol was suspended with agitation in 200 milliliter of n-decane. […] Next, the phases were allowed to separate. The lower phase ([…]) was collected and filtered to remove the residue which had formed at the phase interface upon extraction with the organic solvent. […] This number was arrived at based on two assumptions: (1) 2% of the clioquinol was dissolved in the n-decane; and (2) the partitioning coefficient is 1/1750 with PBS at 1:1 mixture of n-decane to […].
# Aβ 1-40 aggregates = Aβ 1-40 aggregates (Homo sapiens, UniProt P05067); assay: resolubilization of metal- or pH-induced Aβ aggregates on 0.2μ nylon membrane; type: biochemical; settings: 2 μM chelator in TBS, relative to TBS alone
# Aβ 1-40 aggregates, sequence (P05067 672-711): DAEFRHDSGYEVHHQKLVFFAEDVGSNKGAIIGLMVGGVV
# Description: Aggregates were transferred to a 0.2μ nylon membrane by filtration. The aggregates were then washed (200 μl/well) with TBS alone, TBS containing 2 μM EDTA, or TBS containing 2 μM clioquinol. The membrane was fixed, probed with the anti-Aβ monoclonal antibody 6E10, and developed for exposure to ECL-film. […] Values are expressed as a percentage of Aβ signal after washing with TBS alone.
# First, the efficacy of clioquinol's ability to resolubilize Aβ aggregates, formed in vitro by the action of Cu(II) or Zn(II) upon Aβ 1-40, was examined. […] Aβ (10 ng/well in buffered saline) aggregation was induced by addition of ZnCl2 (5 μM) or acidic conditions (pH 5.5). Aggregates were transferred to a 0.2μ nylon membrane by filtration. The aggregates were then washed (200 μl/well) with TBS alone, TBS containing 2 μM EDTA or TBS with 2 μM clioquinol. The membrane was then fixed, probed with anti-Aβ monoclonal antibody 6E10 and developed for exposure to ECL-film.
# Values are expressed as a % of Aβ signal remaining on the filter after washing with TBS alone.
# [2] = system: Aβ deposits from AD-affected brain; assay: extraction of Aβ from post-mortem AD-affected brain tissue, western blot; type: biochemical, human
# Description: To test this hypothesis, the brain tissue preparation of Kuo and colleagues was replicated, but phosphate-buffered saline pH 7.4 (PBS) was substituted as the extraction buffer, achieving similar results. Highly sensitive and specific anti-Aβ monoclonal antibodies (Ida et al., (1996)) were used to assay Aβ extraction by western blot. Next, the extraction of the same material with PBS was repeated in the presence of clioquinol and determined that the presence of clioquinol increased the amount of Aβ in the soluble extract several-fold (FIGS. 1, 2, 3A, and 3B).
# Next, the ability of clioquinol to extract Aβ deposits from human brain was determined. […] Fragments of prefrontal cortex from individual post-mortem samples with the histopathological diagnosis of AD were homogenized in PBS, ph 7.4, and then pelleted after centrifugation.
# The pellets were then washed with agitation twice for 30 minutes, 4° C., with PBS or PBS containing clioquinol (100% =0.8 μM clioquinol). The suspension was then pelleted (10,000 g for 30 minutes) and the supernatant removed (S1) for western blot analysis using Aβ-specific antibodies.
# FIGS. 3A and 3B show the western blot and accompanying densitometric analysis of resolubilization of Aβ from AD-affected brain. […] Synthetic peptide standards that were used to calibrate densitometric quantification are shown in the two right-most lanes. […]
# Aβ1-40 = Aβ1-40 (Homo sapiens, UniProt P05067); assay: Zn(II)-induced Aβ1-40 aggregation, supernatant protein by BCA assay; type: biochemical; settings: 20 mM HEPES, pH 7.4, 30 minutes at 37° C.
# Aβ1-40, sequence (P05067 672-711 limits assumed): as the sequence (P05067 672-711) above
# Description: Aβ1-40 was incubated with no metal, Zn (II), Zn (II) +clioquinol, DMSO or clioquinol (120 μM) in 20 mM HEPES, […], pH 7.4. Samples were incubated for 30 minutes at 37° C. and then centrifuged at 10,000 g for 20 minutes and the protein content of the supernatant determined using the BCA assay. Clioquinol was dissolved in DMSO prior to adding 20 μM to the samples. […] DMSO had no effect on Aβ aggregation. Results are mean ±SD, n=3.
# [3] = chelation of zinc; cited from earlier work
# [4] = rats and mice, within one hour of ingestion; cited from earlier work
# [5] = cited from earlier work; for blood brain barrier passage: in vivo
# [6] = cited from earlier work
# [7] = rats, oral dose of 200 mg/kg; cited from earlier work
# [8] = dogs, oral dose of 200 mg/kg; cited from earlier work
# [9] = monkeys, oral dose of 500 mg/kg; cited from earlier work
# [10] = cited from earlier work; remark: listed apart in the source
# [11] = sustained treatment; cited from earlier work
# [12] = with PBS at 1:1 mixture of n-decane; cited from earlier work
smiles,measurement,setting,value
"Oc1c(I)cc(Cl)c2cccnc12 [clioquinol, 5-chloro-7-iodo-8-hydroxyquinoline]",fraction of clioquinol dissolved in n-decane,[1]; 5.3 grams suspended in 200 milliliter n-decane,2%
same,concentration of clioquinol in the PBS,[1]; PBS pH 7.4 after 1:1 extraction of n-decane supernatant,800 nanamolar
same,resolubilized Cu(II)-induced Aβ precipitate,Aβ 1-40 aggregates,85%
same,resolubilized Zn(II)-induced Aβ precipitate,Aβ 1-40 aggregates,50%
same,resolubilized pH 5.5-induced Aβ precipitate,Aβ 1-40 aggregates,10%
same,increase in solubilization of Aβ relative to PBS alone,"[2]; 1.12 μM clioquinol, sequential extraction",2.5 fold
same,proportion of Aβ re-dissolved from post-mortem AD affected brain tissue,[2]; compared to buffer in the absence of chelators,up to 70%
same,effect on Zn-induced Aβ1-40 aggregation,Aβ1-40,attenuated Zn-induced Aβ1-40 aggregation
same,K(Zn),[3],12.5
same,blood levels,[4],1 to 10 µM
same,removal of a bolus dose from the brain,[5]; bolus dose,almost completely removed from the brain within three hours
same,blood brain barrier passage,[5],freely permeable into the brain
same,blood brain barrier passage,[5]; listed as Clioquinol,crosses the blood brain barrier
same,general toxicity profile,[6]; in vivo,low general toxicity profile
same,safety in mammalian species,"[6]; many mammalian species, including rat and mouse",appears to be safe
same,plasma levels,[7],5 µM
same,plasma levels,[8],10 to 30 µM
same,plasma levels,[9],20 to 70 µM
same,excretion half life,[10]; in vivo,1 to 3 h
same,time to reach peak plasma levels,[10]; oral ingestion,≤ 30 min
same,dose causing subacute myelo-optic neuritis,[11],10 mg/kg/day
same,partitioning coefficient,[12],1/1750
